Columns and labels:
Conditions in all cases: incubation time: 72 h
MDA-MB-231 [1] = assay: drug sensitivity score (DSS), CellTox Green (DSS (AUC-based score)); higher = stronger drug effect (viability inhibition or cytotoxicity); extreme values may be limits of the assay
Summary of the method: (§1)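 For 72 h, breast cancer cell lines seeded at 20 µl suspension per well in 384-well plates were incubated with compound at 5 concentrations in 10-fold steps spanning a 10,000-fold range that differed by compound. The first reading was CellTox Green fluorescence at 485/520 nm, and the second was CellTiter-Glo luminescence after 10 min at room temperature. Both were normalised per plate to 0.1 % DMSO and a positive kill control, and the drug sensitivity score was obtained from the area under the fitted dose-response curve.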

MFM-223 [2] = assay: as above
Summary of the method: as §1

CAL-148 [3] = assay: as above
Summary of the method: as §1

HDQ-P1 [4] = assay: as above
Summary of the method: as §1

HCC1599 [5] = assay: as above
Summary of the method: as §1

MDA-MB-453 [6] = assay: as above
Summary of the method: as §1

HCC1937 [7] = assay: as above
Summary of the method: as §1

BT-474 [8] = assay: as above
Summary of the method: as §1

DU-4475 [9] = assay: as above
Summary of the method: as §1

MDA-MB-436 [10] = assay: as above
Summary of the method: as §1

CAL-51 [11] = assay: as above
Summary of the method: as §1

MDA-MB-231 [12] = assay: normalised viability (% of control), CellTiter-Blue; higher = more viable cells (about 100 = DMSO control)
Summary of the method: (§2)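 Breast cancer cell lines were treated for 72 h in 384-well format and measured by CellTiter-Blue fluorescence at 560/590 nm. Results were normalised per plate to vehicle (100) and a positive kill control (0). The entry is normalised viability at a single listed concentration of the series.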

MFM-223 [13] = assay: as above
Summary of the method: as §2

CAL-148 [14] = assay: as above
Summary of the method: as §2

HDQ-P1 [15] = assay: as above
Summary of the method: as §2

CAL-120 = assay: as above
Summary of the method: as §2

HCC1599 [16] = assay: as above
Summary of the method: as §2

MDA-MB-453 [17] = assay: as above
Summary of the method: as §2

HCC1937 [18] = assay: as above
Summary of the method: as §2

BT-474 [19] = assay: as above
Summary of the method: as §2

SK-BR-3 = assay: as above
Summary of the method: as §2

DU-4475 [20] = assay: as above
Summary of the method: as §2

CAL-85-1 = assay: as above
Summary of the method: as §2

MDA-MB-436 [21] = assay: as above
Summary of the method: as §2

Hs578T = assay: as above
Summary of the method: as §2

HCC1143 = assay: as above
Summary of the method: as §2

CAL-51 [22] = assay: as above
Summary of the method: as §2

BT-549 = assay: as above
Summary of the method: as §2

MDA-MB-468 = assay: as above
Summary of the method: as §2

`Cn1cncc1[C@@](N)(c1ccc(Cl)cc1)c1ccc2c(c1)c(-c1cccc(Cl)c1)cc(=O)n2C` [Tipifarnib] was tested, and the drug sensitivity score (MDA-MB-231 [1]) was 0, the drug sensitivity score (MFM-223 [2]) was 0 and the drug sensitivity score (CAL-148 [3]) was 0. It also gave a drug sensitivity score (HDQ-P1 [4]) of 0, a drug sensitivity score (HCC1599 [5]) of 0 and a drug sensitivity score (MDA-MB-453 [6]) of 0. It also gave a drug sensitivity score (HCC1937 [7]) of 0, a drug sensitivity score (BT-474 [8]) of 0 and a drug sensitivity score (DU-4475 [9]) of 0. For the same compound, the drug sensitivity score (MDA-MB-436 [10]) was 0, the drug sensitivity score (CAL-51 [11]) was 10.3 and the normalised viability (MDA-MB-231 [12]; 1000 nM) was 61.4%. For the same compound, the normalised viability (MFM-223 [13]; 1000 nM) was 67.7%, the normalised viability (CAL-148 [14]; 30 nM) was 74.1% and the normalised viability (HDQ-P1 [15]; 30 nM) was 68%. It also gave a normalised viability (CAL-120; 1000 nM) of 47.4%, a normalised viability (HCC1599 [16]; 1000 nM) of 62.2% and a normalised viability (MDA-MB-453 [17]; 30 nM) of 82.2%. It also gave a normalised viability (HCC1937 [18]; 1000 nM) of 43.6%, a normalised viability (BT-474 [19]; 1000 nM) of 84.4% and a normalised viability (SK-BR-3; 1000 nM) of 66.1%. The normalised viability (DU-4475 [20]; 30 nM) was 69.3%, the normalised viability (CAL-85-1; 30 nM) was 70.1% and the normalised viability (MDA-MB-436 [21]; 1000 nM) was 82.9%. The normalised viability (Hs578T; 1000 nM) was 69.2%, the normalised viability (HCC1143; 1000 nM) was 59.1% and the normalised viability (CAL-51 [22]; 30 nM) was 95.5%. The normalised viability (BT-549; 1000 nM) was 75.8% and the normalised viability (MDA-MB-468; 1000 nM) was 95.5%.
With `O=C1NC(=O)[C@@H](c2cn3c4c(cccc24)CCC3)[C@@H]1c1c[nH]c2ccccc12` [Tivantinib] the drug sensitivity score (MDA-MB-231 [1]) was 3.62, the drug sensitivity score (MFM-223 [2]) was 0 and the drug sensitivity score (CAL-148 [3]) was 7.13. For the same compound, the drug sensitivity score (HDQ-P1 [4]) was 0, the drug sensitivity score (HCC1599 [5]) was 0 and the drug sensitivity score (MDA-MB-453 [6]) was 0. The drug sensitivity score (HCC1937 [7]) was 0, the drug sensitivity score (BT-474 [8]) was 0 and the drug sensitivity score (DU-4475 [9]) was 0. For the same compound, the drug sensitivity score (MDA-MB-436 [10]) was 0, the drug sensitivity score (CAL-51 [11]) was 2.14 and the normalised viability (MDA-MB-231 [12]; 100 nM) was 105%. It also gave a normalised viability (MFM-223 [13]; 100 nM) of 87.2%, a normalised viability (CAL-148 [14]; 3 nM) of 93% and a normalised viability (HDQ-P1 [15]; 3 nM) of 120%. For the same compound, the normalised viability (CAL-120; 100 nM) was 79.8%, the normalised viability (HCC1599 [16]; 100 nM) was 95.7% and the normalised viability (MDA-MB-453 [17]; 3 nM) was 108%. It also gave a normalised viability (HCC1937 [18]; 100 nM) of 64.6%, a normalised viability (BT-474 [19]; 100 nM) of 106% and a normalised viability (SK-BR-3; 100 nM) of 99.9%. For the same compound, the normalised viability (DU-4475 [20]; 3 nM) was 89.2%, the normalised viability (CAL-85-1; 3 nM) was 95.7% and the normalised viability (MDA-MB-436 [21]; 100 nM) was 56.6%. The normalised viability (Hs578T; 100 nM) was 114%, the normalised viability (HCC1143; 100 nM) was 93% and the normalised viability (CAL-51 [22]; 3 nM) was 104%. For the same compound, the normalised viability (BT-549; 100 nM) was 96.5% and the normalised viability (MDA-MB-468; 100 nM) was 103%.

Reference: the supplement of paper PMC4862054
